Laboratory results published in US12449422B2, “Method and composition matter for immunoproteasome-mediated delivery into living cells” (Purdue Research Foundation, priority 2019, dated 2025).
No end group written: not given here.

Assays:
[1] = system: A549 cells; experiment: Cell Titer-Glo luminescent cell viability assay; type: cell-based
Method: A549 cells were treated with 5 ng/mL IFN-γ for 4 days then split into a black 96-well plate at a density of 5,000 cells/well along with non-IFN-γ treated cells. Cells were allowed to adhere overnight before performing assays. The media was removed and fresh media (50 μL) was added to each well. Each probe was added to each well at the corresponding concentration and the plate was returned to the incubator for the given amount of time. To remove any signal due to FBS in the media, the media was removed and cells were washed with PBS (3 times). After the final wash, PBS (50 μL) was added to each well. The plate was incubated at 37° C. in the plate reader, monitoring the change in fluorescence (Ex—485(20) nm, Em—535(20) nm for Rh-probes; gain=90). Samples were run in five replicates and any outliers (outside the range of average±standard deviation) were removed (no more than two replicates per sample were removed). […] To ensure that observed differences in fluorescence were not due to a difference in total cells or cell viability, a Cell Titer-Glo® luminescent cell viability assay (Promega) was performed in a separate white 96 well plate using the same conditions per the manufacturer's protocol. Luminescence was recorded using a BioTek Synergy™ Neo2 Multimode Microplate Reader. […]

[2] = target: T1, iCP (Homo sapiens, UniProt P28062); experiment: LC/MS analysis of TBZ1 cleavage with purified iCP; type: biochemical; settings: 31 μM, 9 nM iCP, 55 min, 37° C.
T1 construct: purchased Boston Biochem
Text: (§1) We first analyzed TBZ1 in the same conditions as the biochemical assay without any iCP to confirm there was not any non-specific degradation occurring during the LC/MS run. In this, we only observed the two isomers of our probe. After treatment with the iCP, we observed two new peaks in the TIC spectrum. These corresponded to the expected Rh-peptoid and peptide fragments. The full mass of TBZ1 was extracted from each triplicate and compared between iCP and sCP samples. […] When this analysis was performed using sCP, we observed that 77% remained uncleaved.
(§2) In the same way as the biochemical assays (FIG. 11), TBZ1 (31 μM) was incubated at 37° C. with or without purified proteasome (9 nM) in 50 mM tris HCl buffer (pH 7.6) for 55 min in triplicate. After incubation, samples were quenched by adding 50 μL of HPLC-grade acetonitrile. The samples were dried under vacuum then resuspended in 50/50 water/acetonitrile with 0.1% formic acid (100 μL). Samples (50 μL) were analyzed by LC/MS (Agilent 1260 Infinity II with a Zorbax Eclipse Plus C18 column, 2.1×50 mm, 1.8-micron attached to an Agilent 6129 quadrupole mass spectrometer). […] Percent TBZ1 remaining in treated samples was determined by comparing the averages of untreated vs. treated samples.

[3] = target: T2, sCP (Homo sapiens, UniProt P28074); experiment: LC/MS analysis of TBZ1 cleavage with purified sCP; type: biochemical; settings: 31 μM, 9 nM sCP, 55 min, 37° C.
T2 construct: purchased Boston Biochem
Text: as §1, §2

[4] = system: A549 cells; experiment: Cellular assay with TBZ1, plate-reader fluorescence; type: cell-based; settings: 31 μM TBZ1, 15 and 60 min
Method: To determine the selectivity of TBZ1 in cells, both untreated cells and cells treated with IFN-γ were plated at the same cell density into a 96-well plate for fluorescence readouts. After allowing sufficient time for the cells to adhere to the wells, TBZ1 was added and allowed to incubate for various time points. Following the initial incubation, wells were washed with PBS to remove any probe that had not been taken up by the cells and the plate was incubated for an additional hour before the fluorescence was recorded. […] We initially intended to use TBZ4 as a way to confirm that the addition of a peptoid improved cell penetration and protease stability of TBZ1. […]
A549 cells were treated with 5 ng/mL IFN-γ for 4 days then split into a black 96-well plate at a density of 5,000 cells/well along with non-IFN-γ treated cells. […] The plate was incubated at 37° C. in the plate reader, monitoring the change in fluorescence (Ex—485(20) nm, Em—535(20) nm for Rh-probes; gain=90). […] To ensure that observed differences in fluorescence were not due to a difference in total cells or cell viability, a Cell Titer-Glo® luminescent cell viability assay (Promega) was performed in a separate white 96 well plate using the same conditions per the manufacturer's protocol. Luminescence was recorded using a BioTek Synergy™ Neo2 Multimode Microplate Reader. […]

[5] = system: IFN-γ treated A549 cells; experiment: Confocal imaging with TBZ1; type: cell-based; settings: 31 μM TBZ1, one hour, vs DMSO
Method: As an additional way to visualize the cells treated with TBZ1, we analyzed IFN-γ cells using confocal microscopy. Following a similar procedure as the plate reader assay, IFN-γ treated cells were plated on glass coverslip chambers coated with poly-D-lysine and were dosed with TBZ1 (31 μM) or DMSO for one hour. After washing, the cells were returned to the incubator for 30 min before staining with Super Bright 436 HLA-A, B, C antibody to serve as a membrane marker.
After four days of treatment with IFN-γ, A549 cells were plated into 8-well chambered coverglass plates that had been coated with poly-d-lysine (20,000 cells/well). The cells were allowed to adhere overnight then washed once with PBS. Fresh media including 31 μM TBZ1 was added to wells in triplicate and incubated for one hour. After incubation, the cells were washed with PBS (3 times) then kept in 200 μL modified Krebs-Ringer buffer (134 mM NaCl, 3.5 mM KCl, 1.2 mM K2HPO4·3H2O, 0.5 mM MgSO4·7H2O, 1.5 mM CaCl2·2H2O, 5 mM NaHCO3 and 10 mM HEPES, pH 7.4). The samples were returned to the incubator. After 30 min, Super Bright 436 HLA-ABC monoclonal antibody (ThermoFisher #62-9983-42) was added to each well (1 μL/well, 0.1 μg) and the samples were returned to the incubator for an additional 30 min. The samples were again washed with PBS and suspended in modified Krebs-Ringer buffer (200 μL) for imaging. […]

[6] = system: A549 cells; experiment: Flow cytometry with TBZ1; type: cell-based; settings: 31 μM TBZ1, preliminary, single replicate
Method: A549 cells untreated and treated with IFN-γ were each plated into 4 wells of a 12-well plate at 300,000 cells/well. The cells were allowed to adhere overnight. To each well was added fresh media (500 μL) with either DMSO alone or TBZ1 (final concentration=31 μM). The plate was returned to the incubator for an hour. The cells were then washed with PBS (3 times). The plate was incubated for an additional hour in PBS. The cells were removed from each well using trypsin-EDTA solution. After centrifuging and removing the media, the cells were resuspended in PBS. Samples were mixed at a ratio of 1:1 -IFN-γ to +IFN-γ cells then all three samples were analyzed by flow cytometry using a Guava EasyCyte instrument with Guava CytoSoft™ software. Samples were excited with a 488 nm laser and fluorescence intensity was recorded from the 525 nm filter cube. Image analysis was performed using FlowJo v10. Data shown in FIG. 17 is of a single replicate.

[7] = target: T1, iCP; experiment: Hit validation: LC/MS of OVA released from hit peptides by iCP; type: biochemical; settings: for iCP % Change OVA: 5.2 μM peptide, 4 nM iCP, 6 hours, 37° C., vs EIC of control peptide Ala-Ala-Ala-Phe-OVA; for Selectivity: iCP over sCP
Method: (§3) Validation assays were performed under similar conditions as the screen. Briefly, 5 μM of each hit peptide was incubated at 37° C. with 4 nM iCP for six hours in triplicate, then analyzed by LC/MS. All peptides were also analyzed under identical conditions using 4 nM sCP. This was done to confirm that our library design yielded the desired selectivity and not simply sequences that could be efficiently cleaved by either isoform. The mass of OVA was extracted and integrated for each sample, averaging the triplicates. […] Of the nine total hits, six validated successfully. Additionally, all validated hits had at least 1.4-fold selectivity for the iCP (FIG. 4C and FIG. 5). We chose to move forward with the sequence Ala-Thr-Met-Trp, as this not only had highly efficient cleavage by the iCP but also was close to 5-fold selective for the iCP compared to the sCP.
(§4) For validation, purified hit sequences (46 μL final concentration 5.2 μM) in 50 mM tris buffer, pH 7.6 were added to nine wells of a 96 well plate. To each triplicate, 4 μL of tris buffer, 50 nM iCP (final concentration 4 nM) or 50 nM sCP (final concentration 4 nM) was added. This was sealed and allowed to incubate for 6 hours at 37° C. HPLC-grade acetonitrile (50 μL) was added to each sample and the samples were then dried under vacuum. Dried samples were resuspended in 100 μL 50/50 water/acetonitrile with 0.1% formic acid. Each sample was then analyzed by LC/MS with an injection volume of 90 μL. The mass of OVA (887.0-887.9) was extracted. The peak at the same time point as the standard was then integrated and averaged over the triplicate for each sample. Percent change was considered for each triplicate in comparison to the EIC of the control peptide sequence (Ala-Ala-Ala-Phe-OVA). Raw data for integrated OVA peaks can be seen in FIG. 5. Each bar represents an average of triplicates with error bars given as the standard deviation.

[8] = target: T2, sCP; experiment: Hit validation: LC/MS of OVA released from hit peptides by sCP; type: biochemical; settings: 5.2 μM peptide, 4 nM sCP, 6 hours, 37° C.; vs EIC of control peptide Ala-Ala-Ala-Phe-OVA
Method: as §3, §4

[9] = target: T1, iCP; experiment: Biochemical assay with fluorogenic substrate probes and purified proteasome; settings: 31 μM probe, 9 nM proteasome, 37° C.
Method: Initially, we treated various concentrations of TBZ1 from 0-250 μM with both the iCP and sCP (FIG. 11). All concentrations were incubated at 37° C. with 9 nM of the respective proteasomes and the increase in fluorescence was monitored for 60 min at 1 min intervals. We found 31 μM of TBZ1 to give a favorable profile, maintaining about a 3:1 selectivity compared to the sCP (FIG. 6).
The remaining probes were studied at 31 μM and monitored for an increase in fluorescence over 30 minutes. […] Finally, we also sought to compare TBZ1 to the commercially available, iCP-selective substrate probe Ac-ANW-AMC.
Each probe was dissolved in DMSO at a proper stock concentration such that the final concentration of DMSO in the sample is 2%. For TBZ1, a two-fold serial dilution was performed to determine the optimal concentration for biochemical assays. Each stock was then diluted in 50 mM tris buffer, pH 7.6 (1 μL stock per 40 μL buffer) and added to a black 96 well plate in triplicate (41 μL per well). Stocks ([…] in 50 mM tris buffer, pH 7.6) of either iCP or sCP was added to each well (9 μL/well, final concentration=9 nM). The change in fluorescence (Ex—485(20) nm, Em—535(20) nm; gain=50) was monitored over time on a Tecan Infinite 200® Pro Microplate Reader. Data was plotted as the average of triplicate samples using GraphPad Prism 7 and can be found in FIG. 11. […]

Q: With `COc1ccc(C[C@H](NC(=O)[C@H](C)NC(=O)CN2CCOCC2)C(=O)N[C@@H](Cc2ccccc2)C(=O)C2(C)CO2)cc1` (stereo in doubt) [ONX-0914] as the compound, how does the “cell death with ONX-0914 (Cell Titer-Glo)” value ([1]; ONX-0914 20 μM, IFN-γ treated A549 cells) read?
A: not due to cell death

Q: Which results are given for `COCCCN(CC(=O)N(CCCN(C)C)CC(N)=O)C(=O)CN(CCCN(C)C)C(=O)CNC(=O)CCC(=O)Nc1ccc2c(c1)Oc1cc(NC(=O)[C@H](Cc3c[nH]c4ccccc34)NC(=O)[C@H](CCSC)NC(=O)[C@@H](NC(=O)[C@H](C)N)C(C)O)ccc1C21OC(=O)c2ccccc21` (stereo partly shown) [TBZ1]?
A: uncleaved TBZ1 remaining in iCP samples [2]: 31%; TBZ1 remaining uncleaved with sCP [3]: 77%; fluorescence signal in IFN-γ treated vs regular A549 cells [4]: significantly increased signal for IFN-γ treated cells; cell viability (Cell Titer-Glo) after TBZ1 treatment ([1]; untreated vs IFN-γ treated A549 cells): no significant difference; intracellular staining by confocal microscopy [5]: increased staining due to probe cleavage within the cell; separation of cell populations by flow cytometry [6]: cell populations can be separated based on increasing amounts of iCP-expressing cells

Q: With “Ala-Ala-Ala-Phe-OVA [reference compound]” as the compound, how does the “iCP % Change OVA” value [7] read?
A: 0%

Q: And the Selectivity ([7]; OVA released)?
A: 1.3

Q: And the “sCP % Change OVA” value [8]?
A: −25%

Q: Which “iCP % Change OVA” value [7] does the source give for His-Gly-Gly here?
A: −82%

Q: And the Selectivity ([7]; OVA released)?
A: 0.8

Q: What about the “sCP % Change OVA” value [8] of the same compound?
A: −78%

Q: With “TBZ2 (AEPY; also: ['rhodamine probe conjugate with peptoid group'])” as the compound, how does the “change in fluorescence / cleavage by purified proteasome” value [9] read?
A: very minimal fluorescence

Q: Which “change in fluorescence / cleavage by purified proteasome” value [9] does the source give for TBZ4 (ATMW; also: rhodamine probe) here?
A: not as efficiently cleaved at TBZ1

Q: “Thr-Met-Trp: hit peptide: N-terminal Ala, P3-P2-P1 Thr-Met-Trp, attached to modified OVA (ATMW; also: attached to modified OVA)” was tested. Which “iCP % Change OVA” value [7] did it give?
A: +1502%

Q: What about the “selectivity for the iCP compared to the sCP” value ([7]; hit validation, OVA released) of the same compound?
A: ~5 fold

Q: What about the Selectivity ([7]; OVA released) of the same compound?
A: 4.8

Q: What about the “sCP % Change OVA” value [8] of the same compound?
A: +232%
